The target of assay [1] is T1, MGFR portion of the MUC1 receptor and its activating ligand(s) (Homo sapiens, UniProt P15941, R1131P).
T1 construct: made in house; host or cells: chemical synthesis (synthetic peptide)
T1 sequence (P15941 with tags, fused parts or gaps R1131P): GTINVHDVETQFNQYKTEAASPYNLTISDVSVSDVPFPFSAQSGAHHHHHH
Put plainly: Colloid-based color-change drug screening assay (His-PSMGFR colloids plus T47D cell lysate). In kind it is binding. The settings on record: final drug concentration approximately 100 μM. As to the method:
In a typical example, 1.5 ml of commercially available gold colloid (Auro Dye by Amersham) were pelleted by centrifugation in a microfuge on high for 10 minutes. The pellet was resuspended in 100 μL of the storage buffer (sodium citrate and tween-20). 100 μL of a dimethyl formamide (DMF) solution containing thiols. Following a 3-hour incubation in the thiol solution, the colloids were pelleted and the supernatant discarded. They were then heat cycled in 100 μL of 400 μM tri-ethylene glycol-terminated thiol in DMF for 2 minutes at 55° C., 2 minutes at 37° C., 1 minute at 55° C., 2 minutes at 37° C., then room temperature for 10 minutes. Heat cycling results in the elimination of any species that are not in the lowest energy confirmation, resulting in a stable, close-packed, self-assembled monolayer. Heat cycling can be carried out with any of a wide variety of self-assembled monolayer-forming species. The colloids were then pelleted and 100 μL 100 mM NaCl phosphate buffer were added. The colloids were then diluted 1:1 with 180 μM NiSO4 in the colloid storage buffer.
Thiols used in coating colloids typically were derived from solutions containing about 40 μM nitrilo tri-acetic acid (NTA)-thiol, and other thiols such as methyl-terminated thiol (HS—(CH2)15 CH3), 40% tri-ethylene glycol-terminated thiol, HS(CH2)11[…], (formula) and 50% poly(ethynylphenyl) thiol (C16H10S).
Colloid aggregation can be sensitively detected by monitoring color change of colloid particles which are initially disperse in suspension. Aggregation results in a color change to blue. No auxiliary signaling entity is necessary. In drug screening, aggregation (or lack thereof) is observed in the presence of candidate drugs.
The following is an example of a working drug screening assay to identify anti-cancer agents. In this example, a histidine-tagged peptide derived from the portion of the MUC1 receptor that remains attached to the cell surface after receptor cleavage (His-PSMGFR) was attached to NTA-nickel-SAM-coated gold colloids. The peptide-presenting colloids were incubated with lysates/supernatants from MUC1 presenting cells that were shown herein to contain ligands that cause dimerization or multimerization of that portion of the MUC1 receptor. This ligand-induced multimerization of the MGFR portion of the receptor causes the attached colloids to be drawn close together, which causes a change in the color of the colloid solution from pink to blue. Drugs that interfere with the binding of activating ligands to the MGFR portion of the receptor cause the solution to remain pink.
Negative control wells contained colloids bound with a random sequence histidine-tagged peptide in place of the MUC1 peptide. […] The well containing colloids that presented the PSMGFR peptide plus T47D cell lysates (Well A) changed color from pink to blue, indicating the presence of a multimerizing ligand. Wells that contained a random sequence peptide (RGD) in place of the PSMGFR peptide (Well B) remained pink. Wells that contained phosphate buffer in place of cell lysate also remained pink (Wells C and D).
T47D cells were trypsinized from a T25 flask, pelleted, resuspended in phosphate buffer, and lysed by sonication to release the ligand into solution. NTA-SAM-coated colloids were bound with the His-PSMGFR peptide:
200 μl NTA-SAM-coated colloids were incubated with 20 μl 100 μM peptide in phosphate buffer for 15 minutes, pelleted to remove unbound peptide, and resuspended in phosphate buffer. […]

For assay [2], the system named is T47D cells. Put plainly: Cell proliferation assay, MUC1 tumor cells treated with drug candidates. It counts as cell-based, human. The settings on record: for Selective inhibition of proliferation of MUC1-expressing tumor cells over control cells: T47D versus K293, 48 hours; for Cell growth (percent cell growth over 48 hours): T47D cells. As to the method: (§1) T47D cells, mammary carcinoma cells known to overexpress MUC1, were grown in the wells of an ELISA plate along with K293 cells, human embryonic kidney cells which will serve as the negative control. 100 μl cells in growth media were added to the wells of an ELISA plate and the cells were allowed to adhere overnight. The number of cells in each well on the plate were then counted and recorded. 1 μl of a drug candidate in DMSO was then added to each well of both the T47D cells and the K293 cells. 1 μl DMSO alone was added to control wells. Each well was repeated in triplet. The cells were allowed to grow for 48 hours, the normal doubling time for these cell lines. The number of cells in each well was again counted and recorded. The percent cell growth over this 48-hour period was calculated, and the percent cell growth for wells containing a drug candidate versus DMSO were compared. […] Cell growth in the presence of Etomoxir was […] for T47D cells and 94% for control cells (K293); Cell growth in the presence of L-alpha-methyl-DOPA was 20% for T47D cells and 110% for control cells (K293); Cell growth in the presence of Fusaric acid was 27.7% for T47D cells, and 106.7% for control cells (K293); Cell growth in the absence of any drug (but with an equivalent amount of DMSO added) was 91.3% for T47D cells, and 106.2% for control cells (K293).

The next assay relates to K293 cells. The assay is described as follows: Cell proliferation assay, negative control cells treated with drug candidates. In kind it is cell-based, human. As for the experimental part: as §1
Assay [3] concerns T47D cells. The assay is described as follows: Modulation of the inhibitory effect of Etomoxir on cell proliferation by added PSMGFR. In kind it is cell-based, human. As to the method: The following experiment was performed in triplicate. T47D cells were grown to approximately 30% confluency. […] Then, a synthetic peptide (PSMGFR) was added to the cell growth media under normal cell growth conditions.

Assay [4] has as its system MUC1 receptor fragments (self-aggregation). Put plainly: Colloid color-change self-aggregation assay of MUC1-derived peptides. The settings on record: peptide on NTA-Ni colloids. In kind it is binding, human. As for the experimental part:
Histidine-tagged peptides were synthesized with the sequences shown in table 1 (the various regions of MUC1). The lyophilized peptides were dissolved in DMSO to give a final concentration of 5 mM. A stock solution of each peptide was made by dissolving 4 μl 5 mM DMSO stock in 196 μl Phosphate-Buffered-Saline (PBS) for a resulting concentration of 100 μM. 20 μl of each 100 μM peptide solution was added to 100 μl colloids presenting NTA-Ni to capture the histidine tag of the peptides. The colloids were incubated with the histidine-tagged peptides at room temperature for 10 minutes to allow binding of the histidine-tags to the NTA-Ni on the surface of the colloids. 20 μl aliquots of each peptides species on colloids was then mixed with 20 μl of every other peptide species and with 60 μl of phosphate buffer pH 7.4. The color change of the colloid solutions was recorded after 15 minutes, see FIG. 2. Row A contains the His-PSIBR (primary sequence interchain binding region) peptide; Row B contains the His-TR peptide; Row C contains the His-RM2 peptide; Row D contains the His-PSMGFR peptide. Column 1 contains the His-PSIBR peptide; Column 2 contains the His-TR peptide; Column 3 contains the His-RM2 peptide; and Column 4 contains the His-PSMGFR peptide. […] During this period, the set of colloids incubated with the His-PSIBR peptide changed color from pink to blue. Only the well of Row A, Column 1, which is the cross section of PSIBR with itself, turned from pink to blue within the first 10 minutes.
The colloid sets were centrifuged to form a pellet and were resuspended in phosphate buffer. […] Since there was only one peptide species on the colloids, the binding interaction must be the PSIBR peptide binding to itself. The other sets of colloids bound to peptides were assayed for their interaction with one another by mixing 15 μl of one colloid type with 15 μl of a second colloid type and 70 μl phosphate buffer.
The peptide was attached to colloid particles presenting NTA thiols, as in other experiments described herein. […]

A further assay addresses T2, PSMGFR peptide (Homo sapiens, UniProt P15941, R1131P).
T2 construct: made in house; host or cells: chemical synthesis (synthetic peptide)
T2 sequence (P15941 with tags, fused parts or gaps R1131P): T1 sequence (P15941 with tags, fused parts or gaps R1131P)
Put plainly: Co-elution of drugs with bead-immobilized His-PSMGFR peptide (HPLC / TLC). In kind it is binding. To be noted: eluates from NTA-nickel beads analyzed by TLC. As for the experimental part: The His-PSMGFR peptide was attached to NTA-nickel agarose beads then separately incubated with each of the drug candidates. 100 μl beads were bound to saturation with 1 mg peptide, rinsed to remove unbound peptide, and incubated with 25 μl 2.7 mg/ml drug candidate in DMSO for one hour in 5 ml phosphate buffer. Unbound drugs were washed away with phosphate buffer, and the peptide was eluted from the beads with PBS, 250 mM imidazole. If the drug candidate bound to the peptide, it would co-elute with the peptide in the imidazole solution. Peptide-drug complexes were then separated by HPLC. HPLC elution peaks from the complex were compared to the elution peaks from the drug, injected alone, and the PSMGFR peptide alone.
In a similar experiment, eluates from the beads were analyzed by TLC (thin layer chromatography). Two drugs, calcimycin and NS1619 which could be tracked by TLC, because they fluoresced under UV light, were tested. NTA-nickel bead-immobilized peptides were incubated with the drugs as described above, rinsed and eluted from the beads, then rotoevaporated to remove the aqueous buffer. The solid was then resuspended in ethylacetate, 5% methanol and spotted on TLC plates then run in the same organic solvent. […] Calcimycin, gave a clear blue spot under 250 nm UV light and ran at a less polar position (as expected) than the peptide itself. […]

No end group written: not given here.

Turning to `CCOC(=O)[C@@]1(CCCCCCOc2ccc(Cl)cc2)CO1` [Etomoxir], the “Interruption of the interaction of MGFR with its ligand(s) (colloid solution stays pink)” value (from here on “Interruption of the interaction of MGFR”) in assay [1] was “interrupt the interaction of MGFR with its ligand(s)”. The “Selective inhibition of proliferation of MUC1-expressing tumor cells over control cells” value in the assay with T47D cells [2] is “selectively inhibited proliferation of the MUC1-expressing tumor cells over K293 negative control cells”. Also, the “Cell growth (percent cell growth over 48 hours)” value in the assay on K293 cells is 94%. Also, the “Cell proliferation in the presence of drug” value in the assay on T47D cells [3] (approx. 100 micromolar) is listed as “arrested”. Turning to “PSIBR: Primary Sequence of the Interchain Binding Region; tested histidine-tagged, SEQ ID NO: 4 (GFLGLSNIKFRPGSVVVQLTLAFRE; not fully specified (N-terminus); also: tested histidine-tagged, tag position not given here)”, the “Self-aggregation of colloid-immobilized peptide (color change pink to blue)” value (from here on “Self-aggregation … (color change pink to blue)”) in assay [4] is “self-aggregates in a high affinity interaction”.

Consider `CCCCc1ccc(C(=O)O)nc1` [Fusaric acid], for which the “Cell growth (percent cell growth over 48 hours)” value with T47D cells [2] worked out at 27.7%; in the assay with K293 cells, 106.7%. On to “His-PSMGFR: Histidine-tagged PSMGFR peptide, SEQ ID NO: 2 (GTINVHDVETQFNQYKTEAASPYNLTISDVSVSDVPFPFSAQSGAHHHHHH; His-PSMGFR peptides)”, for which, in assay [4], the “Self-aggregation … (color change pink to blue)” value is recorded as “completely free of self-aggregation”. As for `O=c1[nH]c2cc(C(F)(F)F)ccc2n1-c1cc(C(F)(F)F)ccc1O` [NS1619], the “Interruption of the interaction of MGFR” value in assay [1] was “interrupt the interaction of MGFR with its ligand(s)”. In addition, the “Direct binding to PSMGFR peptide (co-elution, TLC)” value on PSMGFR peptide is “co-eluted with the PSMGFR peptide”.

On to “PSMGFR: Primary Sequence of the MUC1 Growth Factor Receptor, SEQ ID NO: 7 (GTINVHDVETQFNQYKTEAASPYNLTISDVSVSDVPFPFSAQSGA; Primary Sequence of the MUC1 Growth Factor Receptor (PSMGFR))”, for which the “Cell proliferation after adding peptide to Etomoxir-treated cells” value in the assay on T47D cells [3] (Etomoxir approx. 100 micromolar present) is “increased cell proliferation”. Turning to “ESMGFR: Histidine-tagged Extended Sequence of MUC1 Growth Factor Receptor, SEQ ID NO: 3 (VQLTLAFREGTINVHDVETQFNQYKTEAASPYNLTISDVSVSDVPFPFHHHHHH; “Extended Sequence of the MUC1 Growth Factor Receptor” (ESMGFR))”, the “Self-aggregation … (color change pink to blue)” value in assay [4] was “self-aggregated”.

As to `CCCC[C@@]1(C2CCCC2)Cc2cc(OCC(=O)O)c(Cl)c(Cl)c2C1=O` [butylindazone], the “Interruption of the interaction of MGFR” value in assay [1] was “interrupt the interaction of MGFR with its ligand(s)”.

Take `CNc1ccc2oc(C[C@H]3O[C@@]4(CC[C@H]3C)O[C@H]([C@H](C)C(=O)c3ccc[nH]3)[C@H](C)C[C@H]4C)nc2c1C(=O)O` [calcimycin]: the “Interruption of the interaction of MGFR” value in assay [1] was “interrupt the interaction of MGFR with its ligand(s)”. Also, at PSMGFR peptide, the “Direct binding to PSMGFR peptide (co-elution, TLC)” value is given as “co-eluted with the PSMGFR peptide”. Consider `C[C@](N)(Cc1ccc(O)c(O)c1)C(=O)O` [L-alpha-methyl-DOPA], for which the “Interruption of the interaction of MGFR” value in assay [1] is listed as “interrupt the interaction of MGFR with its ligand(s)”. For the same compound, in the assay on T47D cells [2], the “Cell growth (percent cell growth over 48 hours)” value is given as 20% and the “Selective inhibition of proliferation of MUC1-expressing tumor cells over control cells” value is given as “selectively inhibited proliferation of the MUC1-expressing tumor cells over K293 negative control cells”. Besides, in the assay with K293 cells, the “Cell growth (percent cell growth over 48 hours)” value is on record as 110%.

The values are drawn from US8344113B2, “Diagnostic tumor markers, drug screening for tumorigenesis inhibition, and compositions and methods for treatment of cancer” (Minerva Biotechnologies Corporation, priority 2000, dated 2013).
